Assay results: PMC12974487, “Inhibition of FicD-mediated AMPylation and deAMPylation by isoprenoid diphosphates” (Proceedings of the National Academy of Sciences of the …, 2026)
pEC50: −log10 of the molar value.

Molecular target: T1, FicD^L258D (Homo sapiens, UniProt Q9BVA6, L258D)
T1 construct: soluble ER luminal domain (residues 105 to 458) of wild-type human FicD and three mutants; 6xHis-Sumo (N, cleaved yes); made in house; host or cells: Rosetta(DE3) E. coli
T1 sequence (Q9BVA6 105-458 L258D): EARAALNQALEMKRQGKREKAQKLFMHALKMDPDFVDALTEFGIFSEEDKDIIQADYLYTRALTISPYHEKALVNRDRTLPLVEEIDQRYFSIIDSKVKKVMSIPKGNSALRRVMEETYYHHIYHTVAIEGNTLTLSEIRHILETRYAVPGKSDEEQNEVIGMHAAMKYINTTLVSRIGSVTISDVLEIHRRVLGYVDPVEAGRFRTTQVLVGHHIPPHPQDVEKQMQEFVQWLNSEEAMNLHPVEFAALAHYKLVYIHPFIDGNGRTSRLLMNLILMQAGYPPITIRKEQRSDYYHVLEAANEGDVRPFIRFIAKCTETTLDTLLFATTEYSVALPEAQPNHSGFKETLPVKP
Assay: Differential scanning fluorimetry (DSF) thermal shift with FicD^L258D
Type: binding
Details: for pEC50: read-out: EC50 of DSF dose-response (ΔTm)
Experimental: Differential Scanning Fluorimetry
Thermal shift assays were performed in Biorad CfX384 Touch Real-Time PCR Detection System […]
Reactions contained 50mM HEPES pH 7.4, 200mM NaCl, 200mM KCl, 200uM DTT, 5X Invitrogen Sypro Orange (Cat no. S6650), 8-9μM protein, and indicated nucleotide, cofactor, or small molecule in a total volume of 20uL. For every experiment ‘no protein’ controls were also included with the same reaction conditions. All reactions were performed in technical triplicates. Sealed plates containing reaction mixes were centrifuged for 1-5 min at 1000 RPM prior to temperature scanning (FRET channel), which was performed from 6°C […]
DSF data was analyzed with traditional methods automated in a Python package (https://pypi.org/project/instawell/). Briefly, for each temperature, the RFU values of technical triplicates are averaged. For each timepoint, the background fluorescence was subtracted using the RFU values of the ‘no protein’ control. […]
calculated. The melting temperature (Tm) is defined as the first derivative peak value. Data

maximal Tm shift at saturating ligand concentration (FicD^L258D, 5 mM MgCl2) | Structure (SMILES) | pEC50 (FicD^L258D, 5 mM MgCl2) | binding to FicD^L258D by DSF (absence of MgCl2) | binding to FicD^L258D by DSF (presence of 5 mM MgCl2) | apparent binding (DSF EC50) fold tighter than that of ADP (FicD^L258D, 5 mM MgCl2)
~ 10 °C | Nc1ncnc2c1ncn2[C@@H]1O[C@H](COP(=O)(O)OP(=O)(O)O)[C@@H](O)[C@H]1O [ADP] | 3.43 | did not bind | binding | 
 | CC(C)=CCC/C(C)=C/COP(=O)(O)OP(=O)(O)O [GPP, geranyl-pyrophosphate] | 4.83 |  |  | 20 to 30 fold
 | CC(C)=CCC/C(C)=C/CC/C(C)=C/COP(=O)(O)OP(=O)(O)O [FPP, farnesyl-pyrophosphate] |  | did not bind | bound | 20 to 30 fold
